Values quoted from earlier work in patent US20190298669A1 (priority 2018, published 2019).

Legend:
viral RNP complexes = conditions: Pleschka et al., 2001; cited from earlier work
[1] = human, in vivo; cited from earlier work

| Compound | nuclear cytoplasmic transport of viral RNP complexes (viral RNP complexes) | patients experiencing nausea and vomiting [1] |
| --- | --- | --- |
| N#CC(=C(/N)Sc1ccccc1N)/C(C#N)=C(\N)Sc1ccccc1N [U0126] | leads to a blockade |  |
| CCOC(=O)C1=C[C@@H](OC(CC)CC)[C@H](NC(C)=O)[C@@H](N)C1 [oseltamivir] |  | 10-15% |
